In patent US20130023504A1, “Modulation of Prostaglandin/Cyclooxygenase Metabolic Pathways” (HUNTER-FLEMING LIMITED, priority 2006, published 2013):
Marks after values point to notes of the source that are not given here.

Test system: rats with DSS-induced colitis
Experiment: DSS-induced colitis in rats, 7-day i.p. pre-treatment
Format: in vivo, rat
Conditions: for Body weight: DSS (5%) day 7-14
Text: All experimental protocols and procedures were in agreement with the directive 86/609/CEE of the European Community, for the use of laboratory animals. Male Wistar rats (180-200 g), purchased from Charles River (L'Arbresle, France) were fed with rodent laboratory chow and were given water ad libitum.
After a 7-day adaptation period, animals were divided into two control groups (sham-control and 7β-hydroxy-EPIA-treated control group and two colitis groups (colitis and 7β-hydroxy-EPIA-treated colitis). 7β-Hydroxy-EPIA (0.01, 0.1, and 1 mg/kg body weight dissolved in DMSO) or DMSO alone (vehicle) was administered i.p. once a day for 7 days, from day 0 to day 7. Colitis was induced from day 7 to 14 by addition of DSS (molecular weight 36-50 kDa; MP Biomedicals, France) to drinking water. The two control groups received tap water only.
At day 9, 11, 13, 14, body weight, colon length, stool consistency, were recorded and fresh rectal bleeding evaluated by ocular inspection. The severity of colonic damage was blindly scored as described by Mabley et al., 2001, Inflamm. Res.; 50: 561-569) (0: well-formed pellets and no colon damage; 1: colon with a small amount of blood present mixed with feces; 2: colon with large amount of blood present with faeces; 3: colon filled with blood and no faeces).
A portion of the proximal colon (1 cm) was fixed in 4% formaldehyde (Labonord, Templemars, France) and embedded in paraffin. Tissue sections (5 μm) were prepared, thereafter cleared, hydrated and stained either with hematoxylin/eosin or with Alcian blue according to standard protocols for histological evaluation of colonic damage and mucus goblet cells content, respectively.
The colon was opened along the mesenteric border, and the epithelial cells were scrapped away with the blunt edge of a glass slide then weighed, washed and centrifuged. The pellet was homogenized in 9 volumes TKE buffer (10 mM Tris-HCl; 150 mM KCl; 1 mM EDTA; 0.25 mM PMSF, pH 7.4) and then frozen at −80° C. until further use. The protein content of homogenates were measured according to Lowry et al. (J Biol Chem 1951; 193: 265-74).
MPO activity was assessed in homogenates using the o-dianisidine method of Krawisz et al. (Gastroenterology 1984; 87(6):1344-50) with the modifications of Pelissier et al. (Steroids 2006; 71(3):240-8). MPO activity was expressed as the amount of enzyme necessary to produce a per minute change in absorbance at 460 nm using the extinction coefficient for oxidized o-dianisidine (1.13×10^4 mol^−1.cm^−1).
Lipid peroxidation (Tbars) was measured by a modification by Albrecht et al., (1992, Toxicol. Lett; 63: 91-96) of the method described by Ohkawa et al. (Anal Biochem 1979; 95:315-58). Absorbance of the red 1:2 adduct malondialdehyde-thiobarbituric acid (Sigma-Aldrich, St Quentin-Fallavier, France) was measured at 532 nm (extinction coefficient used: 0.156 μmol^−1 cm^−1). The carbonyl contents in oxidized proteins (Prot CO) were assessed by the method of Levine et al. (Methods Enzymol 1990; 186:464-78). The non-protein sulfhydryl group content (mostly GSH) was taken as the anti-oxidant defense marker in homogenates and determined by the method of Sedlak and Lindsay (Anal Biochem 1968; 25(1):192-205).
Commercially available EIA kits were used for the determination of PGE2 levels (Oxford Biomedical Research, UK) and 15d-PGJ2 levels (Assay designs, Euromedex, France) in colonic supernatants obtained from fresh homogenates. Measurement of PGD2 levels was obtained using the prostaglandin D2-MOX EIA kit (Cayman Chemical, Euromedex). In this case, and prior to assay, the fresh samples were immediately treated with the MOX-HCl reagent which converted PGD2 into PGD2-MOX, thus preventing any further chemical degradation.
Total RNA from fresh colonic samples (300 mg) was extracted using Trizol Reagent (Invitrogen, Cergy-Pontoise, France). […]

## CC12CCC3C(C1CCC2=O)[C@@H](O)C[C@H]1C[C@@H](O)CCC31C (stereo partly drawn) [Compound 7β-OH-EPIA, 7β-hydroxy-EPIAndrosterone]
0.01 mg/kg
  colitis damage and tissue inflammation: completely prevented
0.01 mg/kg body weight i.p. day 0-7, day 14
  Body weight: 297.5 ± 9.5^a g
0.01 mg/kg from D0 to D7
  DSS-induced production of colonic PGE2: completely prevented
0.01 mg/kg from D0 to D7, DSS
  colonic level of 15d-PGJ2: dramatically increasing
0.01 mg/kg, day 14
  Colon length: 16 ± 0.01^c cm
  Epididymis weight: 2.5 ± 0.03^a g
  Liver weight: 12.1 ± 0.3^a g
  Spleen weight: 0.8 ± 0.02^a g
0.1 mg/kg body weight i.p. day 0-7, day 14
  Body weight: 272.1 ± 6^b g
0.1 mg/kg, day 14
  Colon length: 15.6 ± 0.3^c cm
  Epididymis weight: 1.9 ± 0.14^b g
  Liver weight: 12.3 ± 0.6^a g
  Spleen weight: 1.03 ± 0.2^a g
1 mg/kg body weight i.p. day 0-7, day 14
  Body weight: 267.3 ± 7.7^b g
1 mg/kg, day 14
  Colon length: 14.2 ± 0.6^b cm
  Epididymis weight: 1.9 ± 0.1^b g
  Liver weight: 11.9 ± 0.4^a g
  Spleen weight: 0.82 ± 0.06^a g
0.01, 0.1 mg/kg, day 14
  diarrhea and rectal bleeding: suppression
All dose levels, 0.01, 0.1 and 1 mg/kg, vs colitis group
  MPO activity in colonic mucosa: significantly decreased
Day 13 and 14, all dose levels
  oxidative stress parameters (Prot CO, Tbars, GSH) in colonic tissue: restored
pre-treatment day 0 to day 7
  increase in COX-2 and mPGES-1 mRNA synthesis by DSS: suppressed
